Experiments:
Test in all cases: KinaseProfiler kinase profiling
Format in all cases: biochemical
Conditions in all cases: 10 μM, ATP near Km
BTK = biological target: T1, BTK (Homo sapiens, UniProt Q06187)
T1 construct: purchased Millipore, Inc. (KinaseProfiler service)
Experimental: (§1) Compound 1 was tested for off-target kinase activity at a concentration of 10 μM by Millipore, Inc. in their KinaseProfiler™ service against all the kinases available in their full kinase panel. Compound 1 was run in duplicate at a concentration of ATP near the Km for each individual kinase according to Millipore's specifications. Data are reported as percent of control (POC) and are the average of the two replicates.

BrSK2 = biological target: T2, BrSK2 (Homo sapiens, UniProt Q8IWQ3)
T2 construct: purchased Millipore, Inc. (KinaseProfiler service)
Experimental: as §1

CAMK2b = biological target: T3, CAMK2b (Homo sapiens, UniProt Q13554)
T3 construct: purchased Millipore, Inc. (KinaseProfiler service)
Experimental: as §1

CAMK2g = biological target: T4, CAMK2g (Homo sapiens, UniProt Q13555)
T4 construct: purchased Millipore, Inc. (KinaseProfiler service)
Experimental: as §1

CDK3/cyclinE = biological target: T5, CDK3/cyclinE (Homo sapiens, UniProt Q00526)
T5 construct: purchased Millipore, Inc. (KinaseProfiler service)
Experimental: as §1

CDK6/cyclinD3 = biological target: T6, CDK6/cyclinD3 (Homo sapiens, UniProt Q00534)
T6 construct: purchased Millipore, Inc. (KinaseProfiler service)
Experimental: as §1

CHK2 = biological target: T7, CHK2 (Homo sapiens, UniProt O96017)
T7 construct: purchased Millipore, Inc. (KinaseProfiler service)
Experimental: as §1

CK1delta = biological target: T8, CK1delta (Homo sapiens, UniProt P48730)
T8 construct: purchased Millipore, Inc. (KinaseProfiler service)
T8 sequence (P48730 whole entry): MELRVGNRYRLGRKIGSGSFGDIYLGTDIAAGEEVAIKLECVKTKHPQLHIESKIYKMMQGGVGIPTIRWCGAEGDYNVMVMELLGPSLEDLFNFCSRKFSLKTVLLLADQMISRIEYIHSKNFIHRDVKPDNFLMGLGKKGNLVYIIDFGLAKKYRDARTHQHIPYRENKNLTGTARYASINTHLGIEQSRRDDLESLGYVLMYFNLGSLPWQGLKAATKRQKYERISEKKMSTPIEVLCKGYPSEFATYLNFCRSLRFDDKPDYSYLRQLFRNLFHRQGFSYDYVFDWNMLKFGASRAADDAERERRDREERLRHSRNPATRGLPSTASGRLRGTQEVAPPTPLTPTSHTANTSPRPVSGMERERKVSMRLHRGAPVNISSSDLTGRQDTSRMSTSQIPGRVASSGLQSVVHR
Experimental: as §1

CSK = biological target: T9, CSK (Homo sapiens, UniProt P41240)
T9 construct: purchased Millipore, Inc. (KinaseProfiler service)
Experimental: as §1

ERK1 = biological target: T10, ERK1 (Homo sapiens, UniProt P27361)
T10 construct: purchased Millipore, Inc. (KinaseProfiler service)
T10 sequence (P27361 whole entry): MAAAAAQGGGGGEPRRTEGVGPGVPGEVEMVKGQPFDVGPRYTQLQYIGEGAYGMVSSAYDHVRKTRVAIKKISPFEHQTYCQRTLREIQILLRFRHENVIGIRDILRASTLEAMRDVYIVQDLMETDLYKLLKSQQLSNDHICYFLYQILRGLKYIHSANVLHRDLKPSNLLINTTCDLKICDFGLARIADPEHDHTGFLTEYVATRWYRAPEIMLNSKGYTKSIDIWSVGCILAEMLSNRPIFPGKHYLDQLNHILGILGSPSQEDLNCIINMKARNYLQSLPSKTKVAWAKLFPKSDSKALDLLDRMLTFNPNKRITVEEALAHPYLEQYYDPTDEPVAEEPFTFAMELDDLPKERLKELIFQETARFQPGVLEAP
Experimental: as §1

EphB1 = biological target: T11, EphB1 (Homo sapiens, UniProt P54762)
T11 construct: purchased Millipore, Inc. (KinaseProfiler service)
Experimental: as §1

EphB4 = biological target: T12, EphB4 (Homo sapiens, UniProt P54760)
T12 construct: purchased Millipore, Inc. (KinaseProfiler service)
Experimental: as §1

FGFR1 = biological target: T13, FGFR1 (Homo sapiens, UniProt P11362)
T13 construct: purchased Millipore, Inc. (KinaseProfiler service)
Experimental: as §1

FGFR2 = biological target: T14, FGFR2 (Homo sapiens, UniProt P21802)
T14 construct: purchased Millipore, Inc. (KinaseProfiler service)
Experimental: as §1

Fms = biological target: T15, Fms (Homo sapiens, UniProt P07333)
T15 construct: purchased Millipore, Inc. (KinaseProfiler service)
Experimental: as §1

Fyn = biological target: T16, Fyn (Homo sapiens, UniProt P06241)
T16 construct: purchased Millipore, Inc. (KinaseProfiler service)
T16 sequence (P06241 whole entry): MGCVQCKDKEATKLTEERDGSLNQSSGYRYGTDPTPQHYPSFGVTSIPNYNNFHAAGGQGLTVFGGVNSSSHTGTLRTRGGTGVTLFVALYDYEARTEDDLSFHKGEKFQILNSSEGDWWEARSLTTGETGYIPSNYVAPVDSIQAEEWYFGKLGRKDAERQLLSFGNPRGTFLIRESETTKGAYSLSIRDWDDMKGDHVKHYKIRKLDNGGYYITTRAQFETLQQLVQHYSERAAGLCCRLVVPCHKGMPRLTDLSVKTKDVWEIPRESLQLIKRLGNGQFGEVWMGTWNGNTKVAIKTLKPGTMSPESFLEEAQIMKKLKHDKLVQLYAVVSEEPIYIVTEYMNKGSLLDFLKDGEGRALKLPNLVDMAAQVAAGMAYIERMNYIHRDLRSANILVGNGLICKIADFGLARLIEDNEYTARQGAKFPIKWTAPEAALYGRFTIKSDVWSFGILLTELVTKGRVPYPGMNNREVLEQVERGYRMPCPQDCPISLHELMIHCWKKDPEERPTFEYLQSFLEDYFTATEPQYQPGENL
Experimental: as §1

GRK5 = biological target: T17, GRK5 (Homo sapiens, UniProt P34947)
T17 construct: purchased Millipore, Inc. (KinaseProfiler service)
Experimental: as §1

HIPK2 = biological target: T18, HIPK2 (Homo sapiens, UniProt Q9H2X6)
T18 construct: purchased Millipore, Inc. (KinaseProfiler service)
T18 sequence (Q9H2X6 whole entry): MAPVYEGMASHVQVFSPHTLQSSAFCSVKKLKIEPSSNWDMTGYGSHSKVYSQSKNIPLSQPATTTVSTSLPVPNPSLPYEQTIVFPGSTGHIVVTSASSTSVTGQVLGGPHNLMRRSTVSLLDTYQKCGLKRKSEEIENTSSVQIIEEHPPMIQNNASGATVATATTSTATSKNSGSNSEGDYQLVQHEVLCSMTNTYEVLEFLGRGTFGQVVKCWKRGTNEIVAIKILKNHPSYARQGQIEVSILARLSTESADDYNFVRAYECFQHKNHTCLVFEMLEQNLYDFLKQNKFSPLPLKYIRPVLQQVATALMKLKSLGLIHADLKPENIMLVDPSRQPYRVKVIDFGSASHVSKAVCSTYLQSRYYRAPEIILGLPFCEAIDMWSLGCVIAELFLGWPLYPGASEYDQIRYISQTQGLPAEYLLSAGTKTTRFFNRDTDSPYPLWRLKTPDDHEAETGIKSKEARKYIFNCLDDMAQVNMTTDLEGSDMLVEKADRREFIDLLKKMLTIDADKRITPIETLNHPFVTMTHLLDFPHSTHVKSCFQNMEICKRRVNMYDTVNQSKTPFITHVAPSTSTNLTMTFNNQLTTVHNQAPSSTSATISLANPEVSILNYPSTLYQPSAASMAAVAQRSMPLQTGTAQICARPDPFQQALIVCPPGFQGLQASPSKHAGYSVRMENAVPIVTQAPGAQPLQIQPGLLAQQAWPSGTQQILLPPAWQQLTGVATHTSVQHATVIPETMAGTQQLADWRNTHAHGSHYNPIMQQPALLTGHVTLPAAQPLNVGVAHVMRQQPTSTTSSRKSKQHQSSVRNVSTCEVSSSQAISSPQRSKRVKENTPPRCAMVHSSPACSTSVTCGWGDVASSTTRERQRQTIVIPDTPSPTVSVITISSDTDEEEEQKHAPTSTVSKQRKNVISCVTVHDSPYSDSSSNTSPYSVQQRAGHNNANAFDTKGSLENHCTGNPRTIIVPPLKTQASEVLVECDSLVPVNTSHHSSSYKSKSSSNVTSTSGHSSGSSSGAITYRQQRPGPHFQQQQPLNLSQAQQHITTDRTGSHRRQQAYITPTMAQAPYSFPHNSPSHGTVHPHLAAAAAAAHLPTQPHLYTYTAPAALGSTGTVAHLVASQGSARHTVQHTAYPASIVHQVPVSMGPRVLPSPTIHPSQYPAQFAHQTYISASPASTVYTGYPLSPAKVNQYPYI
Experimental: as §1

KDR = biological target: T19, KDR (Homo sapiens, UniProt P35968)
T19 construct: purchased Millipore, Inc. (KinaseProfiler service)
Experimental: as §1

LKB1 = biological target: T20, LKB1 (Homo sapiens, UniProt Q15831)
T20 construct: purchased Millipore, Inc. (KinaseProfiler service)
Experimental: as §1

MAP4K2 = biological target: T21, MAP4K2 (Homo sapiens, UniProt Q12851)
T21 construct: purchased Millipore, Inc. (KinaseProfiler service)
Experimental: as §1

MST2 = biological target: T22, MST2 (Homo sapiens, UniProt Q13188)
T22 construct: purchased Millipore, Inc. (KinaseProfiler service)
Experimental: as §1

Mer = biological target: T23, Mer (Homo sapiens, UniProt Q12866)
T23 construct: purchased Millipore, Inc. (KinaseProfiler service)
Experimental: as §1

PAK2 = biological target: T24, PAK2 (Homo sapiens, UniProt Q13177)
T24 construct: purchased Millipore, Inc. (KinaseProfiler service)
Experimental: as §1

PDGFRalpha = biological target: T25, PDGFRalpha (Homo sapiens, UniProt P16234)
T25 construct: purchased Millipore, Inc. (KinaseProfiler service)
Experimental: as §1

PDGFRbeta = biological target: T26, PDGFRbeta (Homo sapiens, UniProt P09619)
T26 construct: purchased Millipore, Inc. (KinaseProfiler service)
Experimental: as §1

PKCbetaII = biological target: T27, PKCbetaII (Homo sapiens, UniProt P05771)
T27 construct: purchased Millipore, Inc. (KinaseProfiler service)
Experimental: as §1

PKCdelta = biological target: T28, PKCdelta (Homo sapiens, UniProt Q05655)
T28 construct: purchased Millipore, Inc. (KinaseProfiler service)
T28 sequence (Q05655 whole entry): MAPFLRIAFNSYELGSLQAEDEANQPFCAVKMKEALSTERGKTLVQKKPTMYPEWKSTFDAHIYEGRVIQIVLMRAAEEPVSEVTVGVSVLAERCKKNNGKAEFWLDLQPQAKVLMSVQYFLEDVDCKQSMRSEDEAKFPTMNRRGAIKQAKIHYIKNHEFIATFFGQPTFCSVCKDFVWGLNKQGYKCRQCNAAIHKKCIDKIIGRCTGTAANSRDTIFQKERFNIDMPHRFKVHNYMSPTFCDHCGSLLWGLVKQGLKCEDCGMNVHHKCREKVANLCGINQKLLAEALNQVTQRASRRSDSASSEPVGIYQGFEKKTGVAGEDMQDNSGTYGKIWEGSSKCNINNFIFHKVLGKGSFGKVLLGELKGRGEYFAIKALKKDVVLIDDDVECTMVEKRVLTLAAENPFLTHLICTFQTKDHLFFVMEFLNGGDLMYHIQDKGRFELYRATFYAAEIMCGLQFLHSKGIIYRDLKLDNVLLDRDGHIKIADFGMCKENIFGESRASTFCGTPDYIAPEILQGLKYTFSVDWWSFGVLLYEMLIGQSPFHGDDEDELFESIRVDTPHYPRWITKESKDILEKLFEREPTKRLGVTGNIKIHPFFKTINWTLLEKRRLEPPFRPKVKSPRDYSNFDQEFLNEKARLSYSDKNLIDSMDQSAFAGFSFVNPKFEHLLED
Experimental: as §1

PTK5 = biological target: T29, PTK5 (Homo sapiens, UniProt P42685)
T29 construct: purchased Millipore, Inc. (KinaseProfiler service)
Experimental: as §1

RIPK2 = biological target: T30, RIPK2 (Homo sapiens, UniProt O43353)
T30 construct: purchased Millipore, Inc. (KinaseProfiler service)
T30 sequence (O43353 whole entry): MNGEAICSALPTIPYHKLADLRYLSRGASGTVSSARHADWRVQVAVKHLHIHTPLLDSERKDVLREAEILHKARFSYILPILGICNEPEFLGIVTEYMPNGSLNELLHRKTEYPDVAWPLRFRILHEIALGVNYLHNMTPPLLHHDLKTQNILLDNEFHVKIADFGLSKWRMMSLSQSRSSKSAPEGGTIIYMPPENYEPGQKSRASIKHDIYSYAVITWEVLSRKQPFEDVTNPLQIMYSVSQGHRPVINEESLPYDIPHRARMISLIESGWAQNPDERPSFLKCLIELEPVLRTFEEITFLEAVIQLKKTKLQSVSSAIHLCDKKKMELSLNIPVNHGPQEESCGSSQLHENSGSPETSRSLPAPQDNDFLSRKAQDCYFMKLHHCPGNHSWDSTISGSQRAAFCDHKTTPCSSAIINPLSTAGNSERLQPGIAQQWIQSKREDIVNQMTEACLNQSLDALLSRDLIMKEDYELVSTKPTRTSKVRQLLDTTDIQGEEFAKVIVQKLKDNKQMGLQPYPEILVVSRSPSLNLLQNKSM
Experimental: as §1

Rsk1 = biological target: T31, Rsk1 (Homo sapiens, UniProt Q15418)
T31 construct: purchased Millipore, Inc. (KinaseProfiler service)
Experimental: as §1

Rsk3 = biological target: T32, Rsk3 (Homo sapiens, UniProt Q15349)
T32 construct: purchased Millipore, Inc. (KinaseProfiler service)
T32 sequence (Q15349 whole entry): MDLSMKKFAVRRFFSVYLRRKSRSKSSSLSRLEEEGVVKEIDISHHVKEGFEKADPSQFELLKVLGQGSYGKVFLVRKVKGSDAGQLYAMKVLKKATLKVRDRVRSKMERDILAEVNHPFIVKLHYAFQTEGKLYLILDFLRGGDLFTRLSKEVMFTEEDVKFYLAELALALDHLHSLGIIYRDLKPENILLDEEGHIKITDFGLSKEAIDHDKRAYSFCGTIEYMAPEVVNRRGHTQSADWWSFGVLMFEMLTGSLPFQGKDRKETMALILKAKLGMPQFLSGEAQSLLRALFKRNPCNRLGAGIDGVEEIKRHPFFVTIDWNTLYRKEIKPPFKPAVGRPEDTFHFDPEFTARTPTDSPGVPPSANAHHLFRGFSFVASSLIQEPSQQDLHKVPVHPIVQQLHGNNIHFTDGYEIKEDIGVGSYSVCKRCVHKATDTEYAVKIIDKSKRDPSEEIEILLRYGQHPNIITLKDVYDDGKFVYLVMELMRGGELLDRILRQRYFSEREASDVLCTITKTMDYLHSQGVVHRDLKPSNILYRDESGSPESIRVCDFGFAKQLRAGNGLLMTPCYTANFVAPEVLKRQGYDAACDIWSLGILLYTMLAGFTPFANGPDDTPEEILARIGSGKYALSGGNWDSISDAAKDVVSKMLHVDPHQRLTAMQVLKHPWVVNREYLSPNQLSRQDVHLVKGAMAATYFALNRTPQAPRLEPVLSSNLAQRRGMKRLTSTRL
Experimental: as §1

Rsk4 = biological target: T33, Rsk4 (Homo sapiens, UniProt Q9UK32)
T33 construct: purchased Millipore, Inc. (KinaseProfiler service)
Experimental: as §1

SIK = biological target: T34, SIK (Homo sapiens, UniProt P57059)
T34 construct: purchased Millipore, Inc. (KinaseProfiler service)
Experimental: as §1

Syk = biological target: T35, Syk (Homo sapiens, UniProt P43405)
T35 construct: purchased Millipore, Inc. (KinaseProfiler service)
Experimental: as §1

TAK1-TAB1 = biological target: T36, TAK1-TAB1 (Homo sapiens, UniProt O43318)
T36 construct: purchased Millipore, Inc. (KinaseProfiler service)
T36 sequence (O43318 with tags, fused parts or gaps limits assumed): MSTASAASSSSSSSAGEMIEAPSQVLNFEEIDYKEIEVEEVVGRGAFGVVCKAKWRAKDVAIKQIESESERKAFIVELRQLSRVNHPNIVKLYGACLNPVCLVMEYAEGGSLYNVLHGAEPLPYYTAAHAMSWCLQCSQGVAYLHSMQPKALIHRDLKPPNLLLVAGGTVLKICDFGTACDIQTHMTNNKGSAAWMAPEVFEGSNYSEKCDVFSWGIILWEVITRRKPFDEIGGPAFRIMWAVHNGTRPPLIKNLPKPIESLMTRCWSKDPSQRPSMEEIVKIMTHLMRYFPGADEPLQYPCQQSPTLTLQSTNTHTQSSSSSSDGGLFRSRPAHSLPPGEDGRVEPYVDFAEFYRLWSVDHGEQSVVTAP
Experimental: as §1

TEC Activated = biological target: T37, TEC Activated (Homo sapiens, UniProt P42680)
T37 construct: purchased Millipore, Inc. (KinaseProfiler service)
Experimental: as §1

ULK3 = biological target: T38, ULK3 (Homo sapiens, UniProt Q6PHR2)
T38 construct: purchased Millipore, Inc. (KinaseProfiler service)
Experimental: as §1

ZAP-70 = biological target: T39, ZAP-70 (Homo sapiens, UniProt P43403)
T39 construct: purchased Millipore, Inc. (KinaseProfiler service)
Experimental: as §1

c-RAF = biological target: T40, c-RAF (Homo sapiens, UniProt P04049)
T40 construct: purchased Millipore, Inc. (KinaseProfiler service)
Experimental: as §1

mTOR = biological target: T41, mTOR (Homo sapiens, UniProt P42345)
T41 construct: purchased Millipore, Inc. (KinaseProfiler service)
Experimental: as §1

COCCN1C[C@@H](NC(=O)Nc2c(C)c(-c3cnc(C)nc3)nn2-c2ccccc2)[C@H](c2cccc(F)c2)C1 [Compound 1, 1-((3S,4R)-4-(3-fluorophenyl)-1-(2-methoxyethyl)pyrrolidin-3-yl)-3-(4-methyl-3-(2-methylpyrimidin-5-yl)-1-phenyl-1H-pyrazol-5-yl)urea]
Avg POC (BTK): 114 POC
Avg POC (BrSK2): 104 POC
Avg POC (CAMK2b): 147.5 POC
Avg POC (CAMK2g): 97 POC
Avg POC (CDK3/cyclinE): 94.5 POC
Avg POC (CDK6/cyclinD3): 99.5 POC
Avg POC (CHK2): 102.5 POC
Avg POC (CK1delta): 104 POC
Avg POC (CSK): 100 POC
Avg POC (ERK1): 94.5 POC
Avg POC (EphB1): 105.5 POC
Avg POC (EphB4): 102 POC
Avg POC (FGFR1): 117 POC
Avg POC (FGFR2): 99 POC
Avg POC (Fms): 103 POC
Avg POC (Fyn): 96.5 POC
Avg POC (GRK5): 100 POC
Avg POC (HIPK2): 101.5 POC
Avg POC (KDR): 102.5 POC
Avg POC (LKB1): 104.5 POC
Avg POC (MAP4K2): 101 POC
Avg POC (MST2): 102 POC
Avg POC (Mer): 147.5 POC
Avg POC (PAK2): 105.5 POC
Avg POC (PDGFRalpha): 96 POC
Avg POC (PDGFRbeta): 96 POC
Avg POC (PKCbetaII): 99.5 POC
Avg POC (PKCdelta): 102 POC
Avg POC (PTK5): 105 POC
Avg POC (RIPK2): 90.5 POC
Avg POC (Rsk1): 102 POC
Avg POC (Rsk3): 107.5 POC
Avg POC (Rsk4): 105.5 POC
Avg POC (SIK): 108 POC
Avg POC (Syk): 95.5 POC
Avg POC (TAK1-TAB1): 101.5 POC
Avg POC (TEC Activated): 97 POC
Avg POC (ULK3): 107.5 POC
Avg POC (ZAP-70): 104.5 POC
Avg POC (c-RAF): 101 POC
Avg POC (mTOR): 97.5 POC
